Source: patent publication US11691962B2 (eXIthera Pharmaceuticals, Inc., priority 2018, dated 2023)
Where two headings read alike, the source gives them in different places.

Key:
Thrombin = Thrombin (Homo sapiens (Human), UniProt P00734); experiment: Dose response assay for protease inhibitors: thrombin; format: biochemical; conditions: selectivity, thrombin over Factor XIa
How it was run: (§1)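 Glp-Pro-Arg-AMC substrate (thrombin, trypsin) or Pro-Phe-Arg-AMC/Boc-Leu-Gly-Arg-AMC (Factor Xa), diluted to 100 μM, in 20 mM Hepes pH 7.4, 150 mM NaCl, 0.02% Tween 20; enzyme diluted to 0.5 nM before addition. Two-fold serial compound dilutions; kinetic reads at 30° C. Data yield IC50 and Kon.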

Factor Xa = Factor Xa (Homo sapiens (Human), UniProt P00742); experiment: Dose response assay for protease inhibitors: Factor Xa; format: biochemical; conditions: selectivity, Factor Xa over Factor XIa
Sequence of Factor Xa (P00742 235-488): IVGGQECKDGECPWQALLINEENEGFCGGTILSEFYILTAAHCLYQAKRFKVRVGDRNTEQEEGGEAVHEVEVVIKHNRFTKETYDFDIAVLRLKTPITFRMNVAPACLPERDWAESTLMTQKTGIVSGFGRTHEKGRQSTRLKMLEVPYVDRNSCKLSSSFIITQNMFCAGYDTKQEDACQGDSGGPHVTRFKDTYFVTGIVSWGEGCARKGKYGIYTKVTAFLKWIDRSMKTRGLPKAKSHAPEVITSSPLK
Sequence of Factor Xa (P00742 41-179 partner): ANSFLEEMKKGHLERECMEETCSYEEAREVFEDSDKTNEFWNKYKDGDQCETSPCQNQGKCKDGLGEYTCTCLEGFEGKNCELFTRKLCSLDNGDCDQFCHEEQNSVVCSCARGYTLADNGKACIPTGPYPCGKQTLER
How it was run: as §1

[1] = Plasma protein binding by equilibrium dialysis; format: in vitro ADME; conditions: pH 7.4, pooled human plasma, 4 hours at 37° C., read-out: PPB (%)
How it was run: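 Pooled mixed-gender human plasma spiked with compound at 10 μM was dialysed against PBS pH 7.4 for 4 h at 37°C. Both compartments were quantified by HPLC-MS/MS, and % bound was calculated from plasma vs buffer peak areas.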

[2] = Determination of bioavailability in a dog; format: in vivo; conditions: plasma, male beagle dogs, IV bolus 1 mg/kg vs oral gavage 5 mg/kg, AUC comparison
Experimental: The following protocol was used to estimate the bioavailability of test compounds in a dog. Test compounds were formulated in vehicles compatible with intravenous and oral dosing. Test compounds were administered to male beagle dogs via an intravenous bolus at 1 mg/kg (1 mg/mL at a dose volume of 1 mL/kg) or via oral gavage at 5 mg/kg (1 mg/mL at a dose volume of 5 mL/kg). Blood samples were collected via the contralateral (to intravenous bolus) jugular vein or via other accessible vein, at various timepoints following administration out to 24 hours post dose. Plasma samples (EDTA) were obtained by centrifugation (2200×g for 10 minutes at 5° C.) and stored frozen ([…]) until analyzed for parent compound via LC/MS/MS. Pharmacokinetic parameters were estimated from the plasma concentration time data by standard non-compartmental methods utilizing standard analysis software. By comparing the area under the curve (AUC) for IV and PO administration estimates of oral bioavailability were determined.

Trypsin = experiment: Dose response assay for protease inhibitors: trypsin; format: biochemical; conditions: selectivity, trypsin over Factor XIa
How it was run: as §1

[3] = Metabolic stability in dog hepatocytes; format: in vitro ADME; conditions: pooled cryopreserved hepatocytes; beagle dog hepatocytes, 2 μM compound; read-out: Dog Hepatocyte Stability (t1/2)
How it was run: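 Pooled cryopreserved beagle hepatocytes at 500,000 cells/mL in Krebs-Henseleit buffer with 2 μM compound, 37 °C, 5% CO2, sampled out to 180 min. Acetonitrile-quenched samples analysed by LC-MS/MS; percent remaining from peak area versus time zero.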

Row | Compound | Ratio: Thrombin/FXIa (Thrombin) | Ratio: FXa/FXIa (Factor Xa) | fraction unbound at 4 h, 10 μM ([1]; both sexes) | bioavailability [2] | Ratio: Trypsin/FXIa (Trypsin) | half-life at 2 μM [3] | fraction unbound at 4 h, 10 μM ([1]; both)
1 | CC[C@@H](NC(=O)N1C(=O)[C@H](Cc2ccnc(N)c2)[C@H]1C(=O)N(C)c1ccn(C)n1)c1ccccc1 [Compound 1-3, (2S,3R)-3-((2-aminopyridin-4-yl)methyl)-N2-(1-methyl-1H-pyrazol-3-yl)-N1-((R)-1-phenylpropyl)-N2-methyl-4-oxoazetidine-1,2-dicarboxamide] | H (“H” indicates 101-1000) | I (“I” indicates > 500) | 0.1 to 0.5 | > 30% | G (“G” indicates 1-100) | > 4 h | –
2 | CC[C@@H](NC(=O)N1C(=O)[C@H](Cc2ccnc(N)c2)[C@H]1C(=O)N(C)c1ccnn1C)c1cccc(Cl)c1 [Compound 1-4, (2S,3R)-3-((2-aminopyridin-4-yl)methyl)-N2-(1-methyl-1H-pyrazol-5-yl)-N1-((R)-1-(3-chlorophenyl)propyl)-N2-methyl-4-oxoazetidine-1,2-dicarboxamide] | I (“I” indicates > 500) | I (“I” indicates > 500) | 0.1 to 0.5 | > 30% | G (“G” indicates 1-100) | 1.02 to 2 h | –
3 | CC[C@@H](NC(=O)N1C(=O)[C@H](Cc2ccnc(N)c2)[C@H]1C(=O)N(C)c1cccs1)c1ccccc1 [Compound 1-10, (2S,3R)-3-((2-aminopyridin-4-yl)methyl)-N2-(thiophen-2-yl)-N1-((R)-1-phenylpropyl)-N2-methyl-4-oxoazetidine-1,2-dicarboxamide] | H (“H” indicates 101-1000) | H (“H” indicates 101-1000) | 0.05 to 0.09 | 11 to 30% | G (“G” indicates 1-100) | < 1 h | –
4 | CC[C@@H](NC(=O)N1C(=O)[C@H](Cc2ccnc(N)c2)[C@H]1C(=O)N(C)c1nccn1C)c1ccccc1 [Compound 1-13, (2S,3R)-3-((2-aminopyridin-4-yl)methyl)-N2-(1-methyl-1H-imidazol-2-yl)-N1-((R)-1-phenylpropyl)-N2-methyl-4-oxoazetidine-1,2-dicarboxamide] | I (“I” indicates > 500) | I (“I” indicates > 500) | 0.1 to 0.5 | > 30% | G (“G” indicates 1-100) | 2.02 to 4 h | –
5 | CC[C@@H](NC(=O)N1C(=O)[C@H](Cc2cc(C)nc(NC)c2)[C@H]1C(=O)N(C)c1nccn1C)c1ccccc1 [Compound 1-45, (2S,3R)-3-((2-methylamino-6-methylpyridin-4-yl)methyl)-N2-(1-methyl-1H-imidazol-2-yl)-N1-((R)-1-phenylpropyl)-N2-methyl-4-oxoazetidine-1,2-dicarboxamide] | H (“H” indicates 101-1000) | I (“I” indicates > 500) | 0.1 to 0.5 | 11 to 30% | G (“G” indicates 1-100) | 2.02 to 4 h | –
6 | CC[C@@H](NC(=O)N1C(=O)[C@H](Cc2cc(C)nc(N)c2)[C@H]1C(=O)N(C)c1nccn1C)c1ccccc1 [Compound 1-51, (2S,3R)-3-((2-amino-6-methylpyridin-4-yl)methyl)-N2-(1-methyl-1H-imidazol-2-yl)-N1-((R)-1-phenylpropyl)-N2-methyl-4-oxoazetidine-1,2-dicarboxamide] | H (“H” indicates 101-1000) | I (“I” indicates > 500) | 0.1 to 0.5 | > 30% | G (“G” indicates 1-100) | > 4 h | –
7 | CC[C@@H](NC(=O)N1C(=O)[C@H](Cc2ccnc(N)c2)[C@H]1C(=O)N(C)c1nccn1C)c1ccc(C)nc1 [Compound 1-81, (2S,3R)-3-((2-aminopyridin-4-yl)methyl)-N2-(1-methyl-1H-imidazol-2-yl)-N1-((R)-1-(6-methylpyridin-3-yl)propyl)-N2-methyl-4-oxoazetidine-1,2-dicarboxamide] | H (“H” indicates 101-1000) | I (“I” indicates > 500) | < 0.5 | < 10% | G (“G” indicates 1-100) | 2.02 to 4 h | –
8 | CC[C@@H](NC(=O)N1C(=O)[C@H](Cc2ccnc(N)c2)[C@H]1C(=O)N(C)c1nccn1C)c1ccccc1Cl [Compound 1-83] | H (“H” indicates 101-1000) | I (“I” indicates > 500) | – | – | G (“G” indicates 1-100) | 2.02 to 4 h | 0.05 to 0.09
9 | CC[C@@H](NC(=O)N1C(=O)[C@H](Cc2ccnc(N)c2)[C@H]1C(=O)N(C)c1cnn(C)c1)c1ccccc1 [Compound 1-88, (2S,3R)-3-((2-aminopyridin-4-yl)methyl)-N2-(1-methyl-1H-pyrazol-4-yl)-N1-((R)-1-phenylpropyl)-N2-methyl-4-oxoazetidine-1,2-dicarboxamide] | G (“G” indicates 1-100) | H (“H” indicates 101-1000) | 0.1 to 0.5 | – | G (“G” indicates 1-100) | > 4 h | –
10 | CC[C@@H](NC(=O)N1C(=O)[C@H](Cc2ccnc(N)c2)[C@H]1C(=O)N(C)c1cn(C)cn1)c1ccccc1 [Compound 1-90, (2S,3R)-3-((2-aminopyridin-4-yl)methyl)-N2-(1-methyl-1H-imidazol-4-yl)-N1-((R)-1-phenylpropyl)-N2-methyl-4-oxoazetidine-1,2-dicarboxamide] | H (“H” indicates 101-1000) | I (“I” indicates > 500) | 0.1 to 0.5 | – | G (“G” indicates 1-100) | 2.02 to 4 h | –
11 | CC[C@@H](NC(=O)N1C(=O)[C@H](Cc2cc(C)nc(N)c2)[C@H]1C(=O)N(C)c1nccn1C)c1cc(F)ccc1F [Compound 1-137, (2S,3R)-3-((2-amino-6-methylpyridin-4-yl)methyl)-N2-(1-methyl-1H-imidazol-2-yl)-N1-((R)-1-(2,5-difluorophenyl)propyl)-N2-methyl-4-oxoazetidine-1,2-dicarboxamide] | H (“H” indicates 101-1000) | I (“I” indicates > 500) | 0.05 to 0.09 | – | G (“G” indicates 1-100) | > 4 h | –
12 | CC[C@@H](NC(=O)N1C(=O)[C@H](Cc2cc(C)nc(N)c2)[C@H]1C(=O)N(C)c1ccnn1C)c1ccc(C)c(C)c1 [Compound 1-152, (2S,3R)-3-((2-amino-6-methylpyridin-4-yl)methyl)-N2-(1-methyl-1H-pyrazol-5-yl)-N1-((R)-1-(3,4-dimethylphenyl)propyl)-N2-methyl-4-oxoazetidine-1,2-dicarboxamide] | I (“I” indicates > 500) | I (“I” indicates > 500) | 0.1 to 0.5 | – | G (“G” indicates 1-100) | 1.02 to 2 h | –
13 | CC[C@@H](NC(=O)N1C(=O)[C@H](Cc2cc(C)nc(N)c2)[C@H]1C(=O)N(C)c1ccnn1C)c1ccc(C)c(F)c1 [Compound 1-155, (2S,3R)-3-((2-amino-6-methylpyridin-4-yl)methyl)-N2-(1-methyl-1H-pyrazol-5-yl)-N1-((R)-1-(3-fluoro-4-methylphenyl)propyl)-N2-methyl-4-oxoazetidine-1,2-dicarboxamide] | I (“I” indicates > 500) | I (“I” indicates > 500) | 0.1 to 0.5 | – | G (“G” indicates 1-100) | 2.02 to 4 h | –
14 | CC[C@@H](NC(=O)N1C(=O)[C@H](Cc2cc(C)nc(N)c2)[C@H]1C(=O)N(C)c1ccnn1C)c1ccc(F)c(F)c1 [Compound 1-158, (2S,3R)-3-((2-amino-6-methylpyridin-4-yl)methyl)-N2-(1-methyl-1H-pyrazol-5-yl)-N1-((R)-1-(3,4-difluorophenyl)propyl)-N2-methyl-4-oxoazetidine-1,2-dicarboxamide] | I (“I” indicates > 500) | I (“I” indicates > 500) | 0.05 to 0.09 | – | G (“G” indicates 1-100) | 2.02 to 4 h | –
